# Measured values published in patent US20140206681A1, “BTK INHIBITORS” (priority 2013, published 2014).
# Key:
# [1] = target: T1, BTK enzyme (recombinant full-length BTK, hBTK) (Homo sapiens, UniProt Q06187); assay: BTK enzyme activity assay, LANCE TR-FRET; assay type: biochemical; details: 50 pM hBTK, 2 μM biotin-A5-peptide, 25 μM ATP; 60 min compound & enzyme incubation; read-out: IC50 BTK activity value
# T1 construct: recombinant protein from baculovirus-transfected Sf9 cells: full-length BTK, 6HIS-tag cleaved; 6HIS (cleaved yes); made in house; host or cells: baculovirus-transfected Sf9 cells
# HeLa cells = assay: [3H]Adenosine uptake functional cellular assay; assay type: cell-based; details: Homo sapiens, HeLa, accumulation of [3H]adenosine into HeLa cells; compound range 10 μM to […]; read-out: Adenosine uptake inhibition IC50
# Method: Compounds are also screened in an adenosine uptake functional cellular assay using the protocol described below. The adenosine uptake inhibition assay may be used to identify compounds with the potential for a negative cardiovascular side effect.
# Adenosine uptake activity was determined by monitoring the accumulation of tritiated adenosine into HeLa cells (ATCC catalog # CCL-2) using a PMT-based radiometric detection instrument. […] These cells were incubated overnight at 37° C. in a humidified atmosphere with 5% (v/v) CO2. After this time the growth medium was removed and replaced with 40 μL assay medium comprising: Hanks balanced salts solution (HBSS; Thermo Fisher Catalog # SH30268.01)+5% (v/v) FBS. […] 40 μL of compound in the assay medium was dispensed into individual wells of the Cytostar-T plates and the plates were incubated for 30 minutes under ambient laboratory conditions. Following this incubation, 20 μL of 500 nM [^3H]adenosine (American Radiolabeled Chemicals Inc. Catalog # ART0287) was added in the assay medium and incubated for a further 60 minutes under ambient laboratory conditions. The amount of radiolabel accumulation was then determined using a Perkin Elmer Topcount NXT microplate reader. In brief, HeLa cells adhere to the bottom of the Cytostar-T plate, uptake of [^3H]adenosine into these cells brings the radiolabel into sufficient proximity to excite the scintillant in the base of the plates. These events are captured by single PMT, time-resolved coincidence counting. IC50 values were determined by 4 parameter robust fit of counts per second values vs. (Log10) compound concentrations.
# T1 sequence (Q06187 whole entry): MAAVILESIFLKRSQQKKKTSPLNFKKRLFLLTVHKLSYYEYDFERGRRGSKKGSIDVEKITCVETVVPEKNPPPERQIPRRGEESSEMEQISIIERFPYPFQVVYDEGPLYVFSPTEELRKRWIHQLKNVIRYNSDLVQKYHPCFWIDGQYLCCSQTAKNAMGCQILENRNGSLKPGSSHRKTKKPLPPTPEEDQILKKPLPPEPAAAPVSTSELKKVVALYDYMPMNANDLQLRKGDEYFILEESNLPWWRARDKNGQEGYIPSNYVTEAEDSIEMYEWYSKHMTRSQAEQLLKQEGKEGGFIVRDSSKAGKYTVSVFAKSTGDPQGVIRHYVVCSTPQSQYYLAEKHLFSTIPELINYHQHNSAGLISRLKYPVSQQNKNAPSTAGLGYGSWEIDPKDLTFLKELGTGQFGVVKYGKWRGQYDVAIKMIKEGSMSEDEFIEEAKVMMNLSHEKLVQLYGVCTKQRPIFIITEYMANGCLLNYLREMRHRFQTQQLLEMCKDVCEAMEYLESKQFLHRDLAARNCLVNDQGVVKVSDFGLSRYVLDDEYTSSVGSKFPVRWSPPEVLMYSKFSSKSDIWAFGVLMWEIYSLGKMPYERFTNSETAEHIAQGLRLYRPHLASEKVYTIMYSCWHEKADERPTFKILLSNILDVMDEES
Structure (SMILES),IC50 [1] [nM],IC50 (HeLa cells) [nM]
"C[C@@H]1OC(=O)N2C[C@H](c3nc(-c4ccc(C(=O)Nc5cc(C(F)(F)F)ccn5)cc4)c4c(N)nccn34)CC[C@@H]12 [Example 48, 4-{8-amino-3-[(1S,6R,8aS)-1-methyl-3-oxohexahydro[1,3]oxazolo[3,4-a]pyridin-6-yl]imidazo[1,5-a]pyrazin-1-yl}-N-[4-(trifluoromethyl)pyridin-2-yl]benzamide]",0.14,92.6
"C[C@H]1OC(=O)N2C[C@H](c3nc(-c4ccc(C(=O)Nc5cc(C(F)(F)F)ccn5)cc4)c4c(N)nccn34)CC[C@@H]12 [Example 49, 4-{8-amino-3-[(1R,6R,8aS)-1-methyl-3-oxohexahydro[1,3]oxazolo[3,4-a]pyridin-6-yl]imidazo[1,5-a]pyrazin-1-yl}-N-[4-(trifluoromethyl)pyridin-2-yl]benzamide]",0.11,51.8
"CN1CC(=O)N2C[C@H](c3nc(-c4ccc(C(=O)Nc5cc(C(F)(F)F)ccn5)cc4)c4c(N)nccn34)CC[C@H]2C1 [Example 50, 4-{8-amino-3-[(7R,9aS)-2-methyl-4-oxooctahydro-2H-pyrido[1,2-a]pyrazin-7-yl]imidazo[1,5-a]pyrazin-1-yl}-N-[4-(trifluoromethyl)pyridin-2-yl]benzamide]",0.26,45.1
"CN1CC(=O)N2C[C@@H](c3nc(-c4ccc(C(=O)Nc5cc(C(F)(F)F)ccn5)cc4)c4c(N)nccn34)CC[C@@H]2C1 [Example 51, 4-{8-amino-3-[(7S,9aR)-2-methyl-4-oxooctahydro-2H-pyrido[1,2-a]pyrazin-7-yl]imidazo[1,5-a]pyrazin-1-yl}-N-[4-(trifluoromethyl)pyridin-2-yl]benzamide]",1.6,188
"CC1(C)OC(=O)N2C[C@H](c3nc(-c4ccc(C(=O)Nc5cc(C(F)(F)F)ccn5)cc4)c4c(N)nccn34)CC[C@H]21 [Example 52, 4-{8-amino-3-[(6R,8aS)-1,1-dimethyl-3-oxohexahydro[1,3]oxazolo[3,4-a]pyridin-6-yl]imidazo[1,5-a]pyrazin-1-yl}-N-[4-(trifluoromethyl)pyridin-2-yl]benzamide]",0.13,50.1
"COc1cc(C(=O)Nc2cc(C3CC3)ccn2)ccc1-c1nc([C@@H]2CC[C@H]3[C@@H](C)OC(=O)N3C2)n2ccnc(N)c12 [Example 53, 4-{8-amino-3-[(1R,6R,8aS)-1-methyl-3-oxohexahydro[1,3]oxazolo[3,4-a]pyridin-6-yl]imidazo[1,5-a]pyrazin-1-yl}-N-(4-cyclopropylpyridin-2-yl)-3-methoxybenzamide]",0.5,296
"Nc1nccn2c([C@H]3CC[C@@H]4COCCN4C3)nc(-c3ccc(C(=O)Nc4cc(C(F)(F)F)ccn4)cc3)c12 [Example 56, 4-{8-amino-3-[(7S,9aR)-octahydropyrido[2,1-c][1,4]oxazin-7-yl]imidazo[1,5-a]pyrazin-1-yl}-N-[4-(trifluoromethyl)pyridin-2-yl]benzamide]",1.8,114
"Nc1nccn2c([C@H]3CC[C@H]4CNCC(=O)N4C3)nc(-c3ccc(C(=O)Nc4cc(C(F)(F)F)ccn4)cc3)c12 [Example 57, 4-{8-amino-3-[(7S,9aS)-4-oxooctahydro-2H-pyrido[1,2-a]pyrazin-7-yl]imidazo[1,5-a]pyrazin-1-yl}-N-[4-(trifluoromethyl)pyridin-2-yl]benzamide]",0.28,≥ 10000
"Nc1nccn2c([C@H]3CC[C@@H]4C[C@H](O)C(=O)N4C3)nc(-c3ccc(C(=O)Nc4cc(C(F)(F)F)ccn4)cc3)c12 [Example 58, 4-{8-amino-3-[(2S,6S,8aR)-2-hydroxy-3-oxooctahydroindolizin-6-yl]imidazo[1,5-a]pyrazin-1-yl}-N-[4-(trifluoromethyl)pyridin-2-yl]benzamide]",4.1,811
"Nc1nccn2c([C@@H]3CC[C@H]4C[C@@H](O)C(=O)N4C3)nc(-c3ccc(C(=O)Nc4cc(C(F)(F)F)ccn4)cc3)c12 [Example 59, 4-{8-amino-3-[(2R,6R,8aS)-2-hydroxy-3-oxooctahydroindolizin-6-yl]imidazo[1,5-a]pyrazin-1-yl}-N-[4-(trifluoromethyl)pyridin-2-yl]benzamide]",0.13,398
"CNc1nccn2c([C@@H]3CC[C@H]4CCC(=O)N4C3)nc(-c3ccc(C(=O)Nc4cc(C(F)(F)F)ccn4)cc3)c12 [Example 60, 4-{8-(methylamino)-3-[(6R,8aS)-3-oxooctahydroindolizin-6-yl]imidazo[1,5-a]pyrazin-1-yl}-N-[4-(trifluoromethyl)pyridin-2-yl]benzamide]",12.7,44.1
"CCNC(=O)Nc1nccn2c([C@@H]3CC[C@H]4CCC(=O)N4C3)nc(-c3ccc(C(=O)Nc4cc(C(F)(F)F)ccn4)cc3)c12 [Example 61, 4-{8-[(ethylcarbamoyl)amino]-3-[(6R,8aS)-3-oxooctahydroindolizin-6-yl]imidazo[1,5-a]pyrazin-1-yl}-N-[4-(trifluoromethyl)pyridin-2-yl]benzamide]",17.7,19.2
"C[C@H]1CC(=O)N2C[C@H](c3nc(-c4ccc(C(=O)Nc5cc(C(F)(F)F)ccn5)cc4)c4c(N)nccn34)CC[C@H]12 [Example 64, 4-{8-amino-3-[(1S,6R,8aR)-1-methyl-3-oxooctahydroindolizin-6-yl]imidazo[1,5-a]pyrazin-1-yl}-N-[4-(trifluoromethyl)pyridin-2-yl]benzamide]",0.77,114
"Nc1nccn2c([C@@H]3CC[C@H]4CN(CCO)CC(=O)N4C3)nc(-c3ccc(C(=O)Nc4cc(C(F)(F)F)ccn4)cc3)c12 [Example 66, 4-{8-amino-3-[(7R,9aS)-2-(2-hydroxyethyl)-4-oxooctahydro-2H-pyrido[1,2-a]pyrazin-7-yl]imidazo[1,5-a]pyrazin-1-yl}-N-[4-(trifluoromethyl)pyridin-2-yl]benzamide]",0.13,206
"Nc1nccn2c([C@H]3CC[C@@H]4C[C@@H](O)C(=O)N4C3)nc(-c3ccc(C(=O)Nc4cc(C(F)(F)F)ccn4)cc3)c12 [Example 67, 4-{8-amino-3-[(2R,6S,8aR)-2-hydroxy-3-oxooctahydroindolizin-6-yl]imidazo[1,5-a]pyrazin-1-yl}-N-[4-(trifluoromethyl)pyridin-2-yl]benzamide]",3.7,410
"Nc1nccn2c([C@@H]3CC[C@H]4C[C@H](O)C(=O)N4C3)nc(-c3ccc(C(=O)Nc4cc(C(F)(F)F)ccn4)cc3)c12 [Example 68, 4-{8-amino-3-[(2S,6R,8aS)-2-hydroxy-3-oxooctahydroindolizin-6-yl]imidazo[1,5-a]pyrazin-1-yl}-N-[4-(trifluoromethyl)pyridin-2-yl]benzamide]",0.081,430
"CCOc1cc(C(=O)Nc2cc(C(F)(F)F)ccn2)ccc1-c1nc([C@@H]2CC[C@H]3CCC(=O)N3C2)n2ccnc(N)c12 [Example 69, 4-{8-amino-3-[(6R,8aS)-3-oxooctahydroindolizin-6-yl]imidazo[1,5-a]pyrazin-1-yl}-3-ethoxy-N-[4-(trifluoromethyl)pyridin-2-yl]benzamide]",0.16,1440
"Nc1nccn2c([C@@H]3CC[C@H]4CCC(=O)N4C3)nc(-c3ccc(C(=O)Nc4cc(C(F)(F)F)ccn4)cc3OC(F)F)c12 [Example 71, 4-{8-amino-3-[(6R,8aS)-3-oxooctahydroindolizin-6-yl]imidazo[1,5-a]pyrazin-1-yl}-3-(difluoromethoxy)-N-[4-(trifluoromethyl)pyridin-2-yl]benzamide]",0.48,732
"Nc1nccn2c([C@H]3CC[C@H]4C[C@@H](O)C(=O)N4C3)nc(-c3ccc(C(=O)Nc4cc(C(F)(F)F)ccn4)cc3)c12 [Example 73, 4-{8-amino-3-[(2R,6S,8aS)-2-hydroxy-3-oxooctahydroindolizin-6-yl]imidazo[1,5-a]pyrazin-1-yl}-N-[4-(trifluoromethyl)pyridin-2-yl]benzamide]",0.93,973
"Nc1nccn2c([C@H]3CN4C(=O)OC[C@H]4CO3)nc(-c3ccc(C(=O)Nc4cc(C(F)(F)F)ccn4)cc3)c12 [Example 76, 4-(8-amino-3-((6R,8aR)-3-oxohexa hydrooxazolo[4,3-c][1,4]oxazin-6-yl)imidazo[1,5-a]pyrazin-1-yl)-N-(4-(trifluoromethyl)pyridin-2-yl)benzamide]",24.9,682
"C[C@H]1OC[C@@H]2CC[C@@H](c3nc(-c4ccc(C(=O)Nc5cc(C(F)(F)F)ccn5)cc4)c4c(N)nccn34)CN2C1=O [Example 77, 4-(8-amino-3-((3R,7R,9aS)-3-methyl-4-oxooctahydropyrido[2,1-c][1,4]oxazin-7-yl)imidazo[1,5-a]pyrazin-1-yl)-N-(4-(trifluoromethyl)pyridin-2-yl)benzamide]",0.13,31.2
